Test results: patent publication US8273773B2 (priority 2008, dated 2012)
Where two headings read alike, the source gives them in different places.

Tests used:
[1] = target: T1, HCV polymerase (NS5B570n-Con1) (Hepatitis C virus genotype 1b, UniProt Q9WMX2); assay: biochemical; design: species or system HCV Con1 strain;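 also: recombinant His-tagged enzyme from E. coli, radiolabeled nucleotide incorporation into acid-insoluble RNA read by scintillation after filtration, no-enzyme background subtracted, activity relative to positive control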
T1 construct: contains a 21 amino acid deletion at the C-terminus relative to the full-length HCV polymerase; 6-histidine (N); made in house; host or cells: E. coli strain BL21(DE) pLysS (pET17b)

[2] = IC50 HCV NS5B RNA Polymerase Assay, values without asterisk, 20 nM NS5B570n-Con1 enzyme, 20 nM cIRES RNA template
[3] = IC50 HCV NS5B RNA Polymerase Assay (values with asterisk), values with asterisk: cIRES RNA template, 3 nM NS5B570n-Con1

Structure (SMILES) | melting point [°C] | IC50 [1, 2] [nM] | IC50 ([1]; read-out: IC50 HCV NS5B RNA Polymerase Assay, values without asterisk, 20 nM NS5B570n-Con1 enzyme, 20 nM cIRES RNA template) [nM] | IC50 [1, 3] [nM]
CC(C)(C)c1cc(CCc2ccc(NS(C)(=O)=O)cc2)c(N)c(-c2ccc[nH]c2=O)c1 [I-98, N-(4-{2-[2-Amino-5-tert-butyl-3-(2-oxo-1,2-dihydro-pyridin-3-yl)-phenyl]-ethyl}-phenyl)-methanesulfonamide] | 140 to 142 | 7 |  | 
COc1c(CCc2ccc(NS(C)(=O)=O)nn2)cc(-c2ccc[nH]c2=O)cc1C(C)(C)C [I-127] | 218 to 220 | 4 |  | 
COc1c(O)cc(-c2ccc[nH]c2=O)cc1C(C)(C)C [I-23] | 214 to 215 | 1170 |  | 
COc1c(CCc2ccc(F)cc2)cc(-c2ccc[nH]c2=O)cc1C(C)(C)C [I-21] | 157 to 158 | 90 |  | 
CC1(C)COc2c(/C=C/c3ccc(NS(C)(=O)=O)cc3)cc(-c3ccc[nH]c3=O)cc21 [II-1, N-(4-{(E)-2-[3,3-Dimethyl-5-(2-oxo-1,2-dihydro-pyridin-3-yl)-2,3-dihydro-benzofuran-7-yl]-vinyl}-phenyl)-methanesulfonamide] | 284 to 286 | 5 |  | 
CC(C)(C)c1cc(Cc2ccccc2)cc(-c2ccc[nH]c2=O)c1 [I-46, 3-(3-Benzyl-5-tert-butyl-phenyl)-1H-pyridin-2-one] | 180 to 181 | 534 |  | 
COc1c(CC(CN2CCOCC2)c2ccc(NS(C)(=O)=O)cc2)cc(-c2ccc[nH]c2=O)cc1C(C)(C)C (centres unmarked) [I-193] | 138 to 140 | 12 |  | 
COc1c(C(=O)c2cccc(CNS(C)(=O)=O)c2)cc(-c2ccc[nH]c2=O)cc1C(C)(C)C [I-65] | 110 to 115 | 30 |  | 
CC(C)(C)c1cc(Oc2ccccc2)cc(-c2ccc[nH]c2=O)c1 [I-45, 3-(3-tert-Butyl-5-phenoxy-phenyl)-1H-pyridin-2-one] | 90 to 91 | 786 |  | 
COc1c(NC(=O)c2ccc(N)cc2Cl)cc(-c2ccc[nH]c2=O)cc1C(C)(C)C [I-25] | 226 to 228 | 31 |  | 
COc1c(C(=O)c2cccc(N)c2)cc(-c2ccc[nH]c2=O)cc1C(C)(C)C [I-59, 3-[3-(3-amino-benzoyl)-5-tert-butyl-4-methoxy-phenyl]-1H-pyridin-2-one] | 145 to 150 | 9 |  | 
CC(C)(C)c1cc(CCc2ccc(NS(C)(=O)=O)cc2)c(C#N)c(-c2ccc[nH]c2=O)c1 [I-87, N-(4-{2-[5-tert-butyl-2-cyano-3-(2-oxo-1,2-dihydro-pyridin-3-yl)-phenyl]-ethyl}-phenyl)-methanesulfonamide] | 128 to 130 | 13 |  | 
Cc1cc(-c2ccc[nH]c2=O)cc(C(C)(C)C)c1 [I-3] | 224 to 225 | 525 |  | 
COc1c(CCC(=O)O)cc(-c2ccc[nH]c2=O)cc1C(C)(C)C [I-22] | 180.2 to 181.8 | 330 |  | 
COc1c(CC(C)(CN)c2ccc(NS(C)(=O)=O)cc2)cc(-c2ccc[nH]c2=O)cc1C(C)(C)C (centres unmarked) [I-197, N-(4-{1-Aminomethyl-2-[3-tert-butyl-2-methoxy-5-(2-oxo-1,2-dihydro-pyridin-3-yl)-phenyl]-1-methyl-ethyl}-phenyl)-methanesulfonamide] | 240 to 242 | 84 |  | 
COc1c(/C=C/c2ccc(NS(C)(=O)=O)cc2)cc(-c2cc(F)cn(COP(=O)(O)O)c2=O)cc1C(C)(C)C | 175 to 178 |  |  | 
CC(C)(C)c1cc(Cc2ccccc2)c(O)c(-c2ccc[nH]c2=O)c1 [I-17] | 236 to 237 | 293 |  | 
COc1c(NC(=O)c2ccc(NS(C)(=O)=O)c(F)c2)cc(-c2ccc[nH]c2=O)cc1C(C)(C)C [I-121] | 270 to 272 | 7 |  | 
COc1c(C)cc(-c2ccc[nH]c2=O)cc1C(C)(C)C [I-29] | 176 to 178 | 521 |  | 
COc1c(CCc2cnc(NS(C)(=O)=O)cn2)cc(-c2ccc[nH]c2=O)cc1C(C)(C)C [I-133] | 282 to 283 | 16 |  | 
COc1c(CCc2ccc(NS(C)(=O)=O)c(F)c2)cc(-c2ccc[nH]c2=O)cc1C(C)(C)C [I-103] | 111 to 113 | 8 |  | 

Structure (SMILES) | melting point [°C] | IC50 [1, 2] [nM] | IC50 ([1]; read-out: IC50 HCV NS5B RNA Polymerase Assay, values without asterisk, 20 nM NS5B570n-Con1 enzyme, 20 nM cIRES RNA template) [nM] | IC50 [1, 3] [nM]
COc1ccc(-c2ccc[nH]c2=O)cc1C(C)(C)OC [I-62] | 154 to 155 | 4130 |  | 
COc1c(CCc2ccc(N)nn2)cc(-c2ccc[nH]c2=O)cc1C(C)(C)C [I-128] | 142 to 144 | 5 |  | 
COc1ccc(-c2ccc[nH]c2=O)c(F)c1C(C)(C)C [I-56, 3-(3-tert-Butyl-2-fluoro-4-methoxy-phenyl)-1H-pyridin-2-one] | 164.5 to 166 | 136 |  | 
CS(=O)(=O)Nc1ccc(/C=C/c2cc(-c3ccc[nH]c3=O)cc(C3(CO)CC3)c2)cc1 | 148 to 150 |  |  | 
COc1c(/C=C/c2ccc(NS(C)(=O)=O)cc2)cc(-c2cc(F)cn(COC(=O)[C@@H](N)C(C)C)c2=O)cc1C(C)(C)C | 188 to 190 |  |  | 
COc1c(/C=C/c2ccc(NS(C)(=O)=O)cn2)cc(-c2ccc[nH]c2=O)cc1C(C)(C)C | 293 to 295 |  |  | 
COc1c(/C=C/c2ccc(NS(C)(=O)=O)cc2CNC(C)=O)cc(-c2ccc[nH]c2=O)cc1C(C)(C)C [I-160, N-(2-{(E)-2-[3-tert-Butyl-2-methoxy-5-(2-oxo-1,2-dihydro-pyridin-3-yl)-phenyl]-vinyl}-5-methanesulfonylamino-benzyl)-acetamide] |  | 4 |  | 
COc1c(CC(CO)c2ccc(NS(C)(=O)=O)cc2)cc(-c2ccc[nH]c2=O)cc1C(C)(C)C (centres unmarked) [I-176] |  |  | 6 | 
COc1c(/C=C/c2ccc(NS(C)(=O)=O)cn2)cc(-c2cc(F)c[nH]c2=O)cc1C(C)(C)C [I-170, N-(6-{(E)-2-[3-tert-Butyl-5-(5-fluoro-2-oxo-1,2-dihydro-pyridin-3-yl)-2-methoxy-phenyl]-vinyl}-pyridin-3-yl)-methanesulfonamide] |  | 6 |  | 
COc1c(/C=C/c2ccc(NS(C)(=O)=O)cc2)cc(-c2cc(F)c[nH]c2=O)cc1C1(C(F)F)CC1 [I-269, N-(4-{(E)-2-[3-(1-Difluoromethyl-cyclopropyl)-5-(5-fluoro-2-oxo-1,2-dihydro-pyridin-3-yl)-2-methoxy-phenyl]-vinyl}-phenyl)-methanesulfonamide] |  |  |  | 3
COc1c(CCc2ccc(NS(C)(=O)=O)cc2)cc(-c2cc(Cl)c[nH]c2=O)cc1C(C)(C)C [I-95, N-(4-{2-[3-tert-Butyl-5-(5-chloro-2-oxo-1,2-dihydro-pyridin-3-yl)-2-methoxy-phenyl]-ethyl}-phenyl)-methanesulfonamide] |  | 17 |  | 
COc1c(C(=O)Nc2cccc(CO)c2)cc(-c2ccc[nH]c2=O)cc1C(C)(C)C [I-97] |  | 384 |  | 
COc1ccc(-c2cc(/C=C/c3ccc(NS(C)(=O)=O)cc3CO)c(OC)c(C(C)(C)C)c2)c(=O)[nH]1 [I-210, N-(4-{(E)-2-[3-tert-Butyl-2-methoxy-5-(6-methoxy-2-oxo-1,2-dihydro-pyridin-3-yl)-phenyl]-vinyl}-3-hydroxymethyl-phenyl)-methanesulfonamide] |  |  |  | 1
COc1c(/C=C/c2ccc(NS(=O)(=O)C3CC3)cc2)cc(-c2cc(F)c[nH]c2=O)cc1C(C)(C)C [I-155, Cyclopropanesulfonic acid (4-{(E)-2-[3-tert-butyl-5-(5-fluoro-2-oxo-1,2-dihydro-pyridin-3-yl)-2-methoxy-phenyl]-vinyl}-phenyl)-amide] |  | 3 |  | 
COc1c(/C=C/c2ncc(NS(C)(=O)=O)cc2C)cc(-c2ccc[nH]c2=O)cc1C(C)(C)C [I-213, N-(6-{(E)-2-[3-tert-Butyl-2-methoxy-5-(2-oxo-1,2-dihydro-pyridin-3-yl)-phenyl]-vinyl}-5-methyl-pyridin-3-yl)-methanesulfonamide] |  |  |  | 3
COC(=O)c1ccccc1/C=C/c1cc(-c2ccc[nH]c2=O)cc(C(C)(C)C)c1OC [I-242, 2-{(E)-2-[3-tert-Butyl-2-methoxy-5-(2-oxo-1,2-dihydro-pyridin-3-yl)-phenyl]-vinyl}-benzoic acid methyl ester] |  |  |  | 2
COc1c(/C=C/c2ccccc2S(C)(=O)=O)cc(-c2ccc[nH]c2=O)cc1C(C)(C)C [I-244, 3-{3-tert-Butyl-5-[(E)-2-(2-methanesulfonyl-phenyl)-vinyl]-4-methoxy-phenyl}-1H-pyridin-2-one] |  |  |  | 1
COc1c(CC(C)(CO)c2ccc(NS(C)(=O)=O)cc2)cc(-c2ccc[nH]c2=O)cc1C(C)(C)C (centres unmarked) [I-198, N-(4-{2-[3-tert-Butyl-2-methoxy-5-(2-oxo-1,2-dihydro-pyridin-3-yl)-phenyl]-1-hydroxymethyl-1-methyl-ethyl}-phenyl)-methanesulfonamide] |  | 19 |  | 
COCCOc1cc(NS(C)(=O)=O)ccc1C(=O)Nc1cc(-c2ccc[nH]c2=O)cc(C(C)(C)C)c1OC [I-276, N-[3-tert-Butyl-2-methoxy-5-(2-oxo-1,2-dihydro-pyridin-3-yl)-phenyl]-4-methanesulfonylamino-2-(2-methoxy-ethoxy)-benzamide] |  | 20 |  | 
COc1c(NC(=O)c2ccc(NCC(F)(F)F)c(F)c2)cc(-c2ccc[nH]c2=O)cc1C(C)(C)C [I-251, N-[3-tert-Butyl-2-methoxy-5-(2-oxo-1,2-dihydro-pyridin-3-yl)-phenyl]-3-fluoro-4-(2,2,2-trifluoro-ethylamino)-benzamide] |  |  |  | 2
CCOc1nc(-c2cc(-c3ccc[nH]c3=O)cc(C(C)(C)C)c2OC)cc2ccc(NS(C)(=O)=O)cc12 [II-9, N-{3-[3-tert-Butyl-2-methoxy-5-(2-oxo-1,2-dihydro-pyridin-3-yl)-phenyl]-1-ethoxy-isoquinolin-7-yl}-methanesulfonamide] |  | 3 |  | 
